Test results published in ChEMBL document CHEMBL1909046, “DrugMatrix in vitro pharmacology data”.

Experiments:
[1] = target: T1, Type-2 angiotensin II receptor (Homo sapiens, UniProt P50052); assay type: cell-based; conditions: cho-k1; further: in other assays of this panel Not Active means under 50% inhibition at 10 µM
T1 sequence (P50052 whole entry): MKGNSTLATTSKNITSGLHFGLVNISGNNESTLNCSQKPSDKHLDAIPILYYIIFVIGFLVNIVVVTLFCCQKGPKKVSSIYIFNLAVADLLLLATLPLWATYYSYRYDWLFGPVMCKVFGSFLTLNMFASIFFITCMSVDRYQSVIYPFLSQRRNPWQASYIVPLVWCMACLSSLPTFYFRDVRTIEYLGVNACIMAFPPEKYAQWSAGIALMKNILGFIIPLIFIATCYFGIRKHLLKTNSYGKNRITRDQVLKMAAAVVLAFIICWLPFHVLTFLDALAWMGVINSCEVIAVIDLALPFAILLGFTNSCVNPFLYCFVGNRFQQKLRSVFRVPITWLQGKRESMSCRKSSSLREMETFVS

B2 bradykinin receptor = target: T2, B2 bradykinin receptor (Homo sapiens, UniProt P30411); assay type: cell membranes, Membrane; conditions: chem-1; further: in other assays of this panel Not Active means under 50% inhibition at 10 µM
T2 sequence (P30411 whole entry): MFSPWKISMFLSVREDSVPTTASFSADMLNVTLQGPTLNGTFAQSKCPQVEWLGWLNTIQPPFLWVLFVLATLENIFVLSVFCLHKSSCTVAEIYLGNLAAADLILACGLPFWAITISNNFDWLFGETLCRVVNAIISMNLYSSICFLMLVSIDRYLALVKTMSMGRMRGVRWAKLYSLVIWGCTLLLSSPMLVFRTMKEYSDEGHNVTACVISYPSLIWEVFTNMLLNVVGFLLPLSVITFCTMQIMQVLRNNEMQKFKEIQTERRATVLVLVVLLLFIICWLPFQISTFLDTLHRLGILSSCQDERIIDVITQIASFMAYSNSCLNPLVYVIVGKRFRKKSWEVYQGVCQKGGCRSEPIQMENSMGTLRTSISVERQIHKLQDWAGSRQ

Thromboxane-A synthase = target: T3, Thromboxane-A synthase (Homo sapiens, UniProt P24557); assay: biochemical; assay type: tissue-based, Platelet; conditions: platelet;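 further: enzyme inhibition assay with PGH2 supplied as substrate; in other assays of this panel Not Active means under 50% inhibition at 10 µM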
T3 sequence (P24557 whole entry): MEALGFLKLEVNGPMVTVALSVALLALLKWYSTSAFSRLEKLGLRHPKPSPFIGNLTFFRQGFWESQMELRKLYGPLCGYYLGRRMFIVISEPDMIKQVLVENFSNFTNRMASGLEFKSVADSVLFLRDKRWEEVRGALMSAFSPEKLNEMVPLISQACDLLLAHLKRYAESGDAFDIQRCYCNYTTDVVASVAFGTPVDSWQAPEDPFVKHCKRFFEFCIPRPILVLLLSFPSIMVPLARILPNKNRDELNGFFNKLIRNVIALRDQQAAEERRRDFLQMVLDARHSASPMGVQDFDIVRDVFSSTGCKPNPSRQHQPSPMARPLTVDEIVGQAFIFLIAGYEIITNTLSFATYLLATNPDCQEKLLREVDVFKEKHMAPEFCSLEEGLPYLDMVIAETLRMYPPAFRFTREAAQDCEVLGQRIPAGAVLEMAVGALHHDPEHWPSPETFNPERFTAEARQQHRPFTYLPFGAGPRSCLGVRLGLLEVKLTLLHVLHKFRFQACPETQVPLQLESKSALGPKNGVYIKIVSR

Cannabinoid receptor 1 = Cannabinoid receptor 1 (Homo sapiens, UniProt P21554); assay type: cell membranes, Membrane; conditions: chem-1; further: in other assays of this panel Not Active means under 50% inhibition at 10 µM
Sequence of Cannabinoid receptor 1 (P21554 whole entry): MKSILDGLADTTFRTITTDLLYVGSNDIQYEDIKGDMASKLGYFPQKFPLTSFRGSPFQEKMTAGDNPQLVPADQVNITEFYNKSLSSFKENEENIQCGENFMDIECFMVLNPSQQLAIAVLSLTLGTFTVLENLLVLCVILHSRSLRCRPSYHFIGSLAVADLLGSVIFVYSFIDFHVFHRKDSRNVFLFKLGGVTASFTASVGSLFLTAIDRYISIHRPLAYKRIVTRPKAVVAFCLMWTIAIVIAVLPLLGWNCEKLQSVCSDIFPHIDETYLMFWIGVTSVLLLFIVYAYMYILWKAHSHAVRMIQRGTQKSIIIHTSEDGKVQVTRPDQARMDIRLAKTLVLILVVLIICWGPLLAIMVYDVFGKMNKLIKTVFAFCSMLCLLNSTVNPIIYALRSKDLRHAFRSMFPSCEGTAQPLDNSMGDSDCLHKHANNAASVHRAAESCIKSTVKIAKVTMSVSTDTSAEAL

Carbonic anhydrase 2 = Carbonic anhydrase 2 (Homo sapiens, UniProt P00918); assay: DRUGMATRIX: Carbonic Anhydrase II enzyme inhibition (substrate: 4-Nitrophenyl acetate (4-NPA)); assay type: tissue-based, Erythrocyte; conditions: erythrocyte; Not Active = under 50% inhibition at 10 µM
[2] = target: C-C chemokine receptor type 5 (Homo sapiens, UniProt P51681); assay type: cell membranes, Membrane; conditions: hek293; further: in other assays of this panel Not Active means under 50% inhibition at 10 µM
Sequence of C-C chemokine receptor type 5 (P51681 whole entry): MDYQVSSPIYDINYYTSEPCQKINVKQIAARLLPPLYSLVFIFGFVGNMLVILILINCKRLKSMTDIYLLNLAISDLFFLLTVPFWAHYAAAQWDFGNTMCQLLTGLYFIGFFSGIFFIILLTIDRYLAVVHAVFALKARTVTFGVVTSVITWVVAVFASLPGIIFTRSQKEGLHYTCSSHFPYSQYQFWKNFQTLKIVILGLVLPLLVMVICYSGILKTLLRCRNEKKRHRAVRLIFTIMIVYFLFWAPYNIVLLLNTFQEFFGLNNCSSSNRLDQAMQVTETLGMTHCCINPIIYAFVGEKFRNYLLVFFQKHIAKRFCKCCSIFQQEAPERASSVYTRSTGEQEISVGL

[3] = target: Prostaglandin G/H synthase 1 (Homo sapiens, UniProt P23219); assay: biochemical; assay type: tissue-based, Platelet; conditions: platelet
Sequence of Prostaglandin G/H synthase 1 (P23219 whole entry): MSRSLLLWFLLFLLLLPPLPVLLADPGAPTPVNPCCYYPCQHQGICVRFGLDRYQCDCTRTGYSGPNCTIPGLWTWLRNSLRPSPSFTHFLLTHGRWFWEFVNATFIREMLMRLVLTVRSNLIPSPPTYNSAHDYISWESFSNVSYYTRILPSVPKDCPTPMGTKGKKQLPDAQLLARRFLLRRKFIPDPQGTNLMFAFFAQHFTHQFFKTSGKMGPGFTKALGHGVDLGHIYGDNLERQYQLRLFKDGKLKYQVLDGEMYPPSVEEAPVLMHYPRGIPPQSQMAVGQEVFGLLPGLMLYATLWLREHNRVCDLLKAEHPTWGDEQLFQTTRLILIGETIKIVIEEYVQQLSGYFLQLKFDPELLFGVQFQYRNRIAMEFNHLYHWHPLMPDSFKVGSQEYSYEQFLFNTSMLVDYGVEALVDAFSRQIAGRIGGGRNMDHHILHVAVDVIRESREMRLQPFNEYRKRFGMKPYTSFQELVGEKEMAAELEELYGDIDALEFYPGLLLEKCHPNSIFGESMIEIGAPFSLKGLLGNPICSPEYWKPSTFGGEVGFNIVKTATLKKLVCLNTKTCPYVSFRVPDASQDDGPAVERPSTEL

Melanocortin receptor 5 = Melanocortin receptor 5 (Homo sapiens, UniProt P33032); assay type: cell membranes, HEK293, Membrane; conditions: hek293; further: in other assays of this panel Not Active means under 50% inhibition at 10 µM
Sequence of Melanocortin receptor 5 (P33032 whole entry): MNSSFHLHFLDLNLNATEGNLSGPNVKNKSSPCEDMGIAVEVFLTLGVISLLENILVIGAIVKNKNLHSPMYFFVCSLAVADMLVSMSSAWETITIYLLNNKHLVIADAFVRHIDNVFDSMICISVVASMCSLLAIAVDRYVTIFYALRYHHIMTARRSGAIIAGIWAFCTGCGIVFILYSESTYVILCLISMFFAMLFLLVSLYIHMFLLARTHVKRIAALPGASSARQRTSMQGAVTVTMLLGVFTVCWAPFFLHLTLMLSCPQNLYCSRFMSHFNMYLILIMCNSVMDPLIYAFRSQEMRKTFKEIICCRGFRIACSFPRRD

[4] = target: T4, Amine oxidase [flavin-containing] A (Homo sapiens, UniProt P21397); assay: DRUGMATRIX: Monoamine Oxidase MAO-A enzyme inhibition (substrate: Kynuramine); design: species or system BTI-TN-5B1-4; conditions: Not Active = under 50% inhibition at 10 µM
T4 sequence (P21397 whole entry): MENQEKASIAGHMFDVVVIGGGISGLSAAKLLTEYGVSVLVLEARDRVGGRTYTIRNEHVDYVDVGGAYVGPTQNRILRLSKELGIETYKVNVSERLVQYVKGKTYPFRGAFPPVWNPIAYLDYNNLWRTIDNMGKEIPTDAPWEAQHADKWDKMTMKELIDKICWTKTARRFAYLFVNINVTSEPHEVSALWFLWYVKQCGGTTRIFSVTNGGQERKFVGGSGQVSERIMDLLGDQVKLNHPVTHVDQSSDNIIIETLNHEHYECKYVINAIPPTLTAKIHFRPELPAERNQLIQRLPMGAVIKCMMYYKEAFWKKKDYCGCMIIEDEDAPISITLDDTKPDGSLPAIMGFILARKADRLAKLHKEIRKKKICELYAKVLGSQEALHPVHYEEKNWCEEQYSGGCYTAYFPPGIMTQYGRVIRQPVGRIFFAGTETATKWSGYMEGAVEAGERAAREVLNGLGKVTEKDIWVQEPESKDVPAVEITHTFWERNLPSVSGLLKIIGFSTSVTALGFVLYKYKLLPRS

[5] = target: Delta-type opioid receptor (Homo sapiens, UniProt P41143); assay type: cell membranes, HEK293, Membrane; conditions: hek293; further: in other assays of this panel Not Active means under 50% inhibition at 10 µM
Sequence of Delta-type opioid receptor (P41143 whole entry): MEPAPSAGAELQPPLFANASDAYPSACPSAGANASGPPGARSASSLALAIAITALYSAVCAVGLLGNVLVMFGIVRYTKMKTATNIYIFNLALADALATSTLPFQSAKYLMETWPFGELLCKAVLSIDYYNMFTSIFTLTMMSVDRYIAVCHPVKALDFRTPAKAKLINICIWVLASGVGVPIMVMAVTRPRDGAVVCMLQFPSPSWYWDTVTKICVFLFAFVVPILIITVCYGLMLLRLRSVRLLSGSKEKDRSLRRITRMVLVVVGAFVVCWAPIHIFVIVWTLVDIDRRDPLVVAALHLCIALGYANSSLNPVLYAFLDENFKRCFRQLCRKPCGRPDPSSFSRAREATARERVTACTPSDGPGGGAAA

[6] = target: Kappa-type opioid receptor (Homo sapiens, UniProt P41145); assay: DRUGMATRIX: Opiate kappa (OP2, KOP) radioligand binding (ligand: [3H] Diprenorphine); assay type: cell membranes, HEK293, Membrane; conditions: hek293; Not Active = under 50% inhibition at 10 µM
Sequence of Kappa-type opioid receptor (P41145 whole entry): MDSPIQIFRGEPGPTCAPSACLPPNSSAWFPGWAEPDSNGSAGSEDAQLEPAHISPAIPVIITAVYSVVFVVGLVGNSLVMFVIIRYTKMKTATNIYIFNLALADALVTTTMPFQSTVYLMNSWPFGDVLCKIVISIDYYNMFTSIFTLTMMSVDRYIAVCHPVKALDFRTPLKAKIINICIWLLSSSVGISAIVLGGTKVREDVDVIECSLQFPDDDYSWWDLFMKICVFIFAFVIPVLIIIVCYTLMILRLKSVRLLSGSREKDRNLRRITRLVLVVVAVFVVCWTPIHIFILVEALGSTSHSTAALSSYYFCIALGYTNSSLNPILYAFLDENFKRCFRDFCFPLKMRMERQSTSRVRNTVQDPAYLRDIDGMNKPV

[7] = DRUGMATRIX: Phosphodiesterase PDE3 enzyme inhibition (substrate: [3H]cAMP + cAMP); assay type: tissue-based, Homo sapiens; conditions: platelet, Not Active = under 50% inhibition at 10 µM
[8] = target: Protein kinase C alpha type (Homo sapiens, UniProt P17252); assay type: cell-based; conditions: sf9
[9] = target: Epidermal growth factor receptor (Homo sapiens, UniProt P00533); assay: DRUGMATRIX: Protein Tyrosine Kinase, EGF Receptor enzyme inhibition (substrate: Poly(Glu:Tyr)); assay type: cell-based, Insect cells; conditions: insect cells, Not Active = under 50% inhibition at 10 µM
Cytochrome P450 2C9 = Cytochrome P450 2C9 (Homo sapiens, UniProt P11712); conditions: bti-tn-5b1-4; further: in other assays of this panel Not Active means under 50% inhibition at 10 µM
Sequence of Cytochrome P450 2C9 (P11712 whole entry): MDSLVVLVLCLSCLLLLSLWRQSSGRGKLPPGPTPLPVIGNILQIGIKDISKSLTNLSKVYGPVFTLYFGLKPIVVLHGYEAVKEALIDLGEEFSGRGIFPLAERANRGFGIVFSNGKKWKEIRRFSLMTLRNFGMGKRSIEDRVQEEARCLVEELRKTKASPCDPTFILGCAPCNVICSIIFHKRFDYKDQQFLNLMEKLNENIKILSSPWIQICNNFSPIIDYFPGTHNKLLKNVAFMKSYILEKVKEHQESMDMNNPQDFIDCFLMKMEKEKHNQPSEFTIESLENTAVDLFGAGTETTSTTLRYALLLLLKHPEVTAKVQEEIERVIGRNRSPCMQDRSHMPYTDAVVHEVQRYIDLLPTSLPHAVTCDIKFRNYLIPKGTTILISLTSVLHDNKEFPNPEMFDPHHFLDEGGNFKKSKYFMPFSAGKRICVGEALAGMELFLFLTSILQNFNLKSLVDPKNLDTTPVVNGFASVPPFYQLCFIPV

[10] = target: Sodium-dependent noradrenaline transporter (Homo sapiens, UniProt P23975); assay: DRUGMATRIX: Norepinephrine Transporter radioligand binding (ligand: [125I] RTI-55); assay type: cell membranes, MDCK, Membrane; conditions: mdck; Not Active = under 50% inhibition at 10 µM
Sequence of Sodium-dependent noradrenaline transporter (P23975 whole entry): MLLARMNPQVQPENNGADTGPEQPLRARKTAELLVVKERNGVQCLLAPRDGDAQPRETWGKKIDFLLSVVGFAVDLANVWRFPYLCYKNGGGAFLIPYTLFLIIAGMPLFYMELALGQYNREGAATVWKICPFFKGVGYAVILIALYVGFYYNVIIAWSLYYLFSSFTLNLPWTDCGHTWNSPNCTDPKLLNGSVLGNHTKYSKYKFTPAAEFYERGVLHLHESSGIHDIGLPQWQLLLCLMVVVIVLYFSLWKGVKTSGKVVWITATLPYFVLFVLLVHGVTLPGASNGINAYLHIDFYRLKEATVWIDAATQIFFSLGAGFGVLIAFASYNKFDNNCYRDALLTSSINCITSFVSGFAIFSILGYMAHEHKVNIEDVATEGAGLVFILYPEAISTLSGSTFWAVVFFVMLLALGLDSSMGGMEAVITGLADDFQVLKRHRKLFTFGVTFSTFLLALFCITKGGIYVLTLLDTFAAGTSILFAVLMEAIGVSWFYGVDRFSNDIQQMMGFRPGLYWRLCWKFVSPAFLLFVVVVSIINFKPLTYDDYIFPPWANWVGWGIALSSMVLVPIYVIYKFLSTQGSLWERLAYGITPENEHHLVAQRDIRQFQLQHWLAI

Row | Compound | IC50 [1] | IC50 (B2 bradykinin receptor) | IC50 (Thromboxane-A synthase) | IC50 (Cannabinoid receptor 1) | IC50 (Carbonic anhydrase 2) | IC50 [2] | IC50 [3] | IC50 (Melanocortin receptor 5) | IC50 ([4]; bti-tn-5b1-4) | IC50 [5] | IC50 [6] | IC50 [7] | Ki [7] | IC50 [8] | IC50 [9] | IC50 (Cytochrome P450 2C9) | Ki (Cytochrome P450 2C9) | IC50 [10] | Ki [10] | Ki [1] | further results
1 | COCc1c(C(C)C)nc(C(C)C)c(/C=C/[C@@H](O)C[C@@H](O)CC(=O)O)c1-c1ccc(F)cc1 [CERIVASTATIN] | Not Active | Not Active | Not Active | Not Active | Not Active | Not Active | Not Active | Not Active | Not Active | Not Active | Not Active | Not Active | Not Active | Not Active | Not Active | Not Active | Not Active |  |  |  | 
2 | CNCCC=C1c2ccccc2CCc2ccccc21 [NORTRIPTYLINE] | Not Active | Not Active | Not Active | Not Active | Not Active | Not Active | Not Active | Not Active | Not Active | Not Active | Not Active | Not Active | Not Active | Not Active | Not Active | Not Active | Not Active |  |  |  | 
3 | Fc1ccc([C@@H]2CCNC[C@H]2COc2ccc3c(c2)OCO3)cc1 [PAROXETINE] | Not Active | Not Active | Not Active | Not Active | Not Active | Not Active | Not Active | Not Active | Not Active | Not Active | Not Active | Not Active | Not Active | Not Active | Not Active | Not Active | Not Active |  |  |  | 
4 | CARBOPLATIN | Not Active | Not Active | Not Active | Not Active | Not Active | Not Active | Not Active | Not Active | Not Active | Not Active |  | Not Active | Not Active | Not Active | Not Active | Not Active | Not Active | Not Active | Not Active | Not Active | Ki (B2 bradykinin receptor): Not Active; Ki (Thromboxane-A synthase): Not Active; Ki (Cannabinoid receptor 1): Not Active; Ki (Carbonic anhydrase 2): Not Active; Ki [2]: Not Active; Ki [3]: Not Active; Ki (Melanocortin receptor 5): Not Active; Ki ([4]; bti-tn-5b1-4): Not Active; Ki [5]: Not Active; Ki [8]: Not Active; Ki [9]: Not Active
5 | c1ccc2c(c1)cc1ccc3cccc4ccc2c1c34 | Not Active | Not Active | Not Active | Not Active | Not Active | Not Active | Not Active | Not Active |  | Not Active |  | Not Active | Not Active | Not Active | Not Active | Not Active | Not Active | Not Active |  |  | IC50 ([4]; read-out: IC50): 5.97 µM
6 | CISPLATIN | Not Active | Not Active |  | Not Active | Not Active | Not Active | Not Active |  | Not Active | Not Active |  |  |  | Not Active |  | Not Active | Not Active | Not Active | Not Active | Not Active | Ki (B2 bradykinin receptor): Not Active; IC50 (Thromboxane-A synthase; read-out: IC50): 9.35 µM; Ki (Cannabinoid receptor 1): Not Active; Ki (Carbonic anhydrase 2): Not Active; Ki [2]: Not Active; Ki [3]: Not Active; IC50 (Melanocortin receptor 5; read-out: IC50): 6.43 µM; Ki (Melanocortin receptor 5; read-out: Ki): 6.04 µM; Ki ([4]; bti-tn-5b1-4): Not Active; Ki [5]: Not Active; IC50 ([7]; read-out: IC50): 46.3 µM; Ki [8]: Not Active; IC50 ([9]; read-out: IC50): 2.62 µM
7 | OXALIPLATIN | Not Active | Not Active | Not Active | Not Active | Not Active | Not Active | Not Active | Not Active | Not Active | Not Active |  | Not Active | Not Active | Not Active | Not Active | Not Active | Not Active | Not Active | Not Active | Not Active | Ki (B2 bradykinin receptor): Not Active; Ki (Thromboxane-A synthase): Not Active; Ki (Cannabinoid receptor 1): Not Active; Ki (Carbonic anhydrase 2): Not Active; Ki [2]: Not Active; Ki [3]: Not Active; Ki (Melanocortin receptor 5): Not Active; Ki ([4]; bti-tn-5b1-4): Not Active; Ki [5]: Not Active; Ki [8]: Not Active; Ki [9]: Not Active
